Measurements published in ChEMBL document CHEMBL1151490, “Inhibition of farnesyl protein transferase by new farnesyl phosphonate derivatives of phenylalanine” (Bioorg Med Chem Lett, 1996).

Assays:
Squalene synthase = molecular target: T1, Squalene synthase (Rattus norvegicus, UniProt Q02769); assay: Inhibition of squalene synthase from rat liver microsomes
T1 sequence (Q02769 whole entry): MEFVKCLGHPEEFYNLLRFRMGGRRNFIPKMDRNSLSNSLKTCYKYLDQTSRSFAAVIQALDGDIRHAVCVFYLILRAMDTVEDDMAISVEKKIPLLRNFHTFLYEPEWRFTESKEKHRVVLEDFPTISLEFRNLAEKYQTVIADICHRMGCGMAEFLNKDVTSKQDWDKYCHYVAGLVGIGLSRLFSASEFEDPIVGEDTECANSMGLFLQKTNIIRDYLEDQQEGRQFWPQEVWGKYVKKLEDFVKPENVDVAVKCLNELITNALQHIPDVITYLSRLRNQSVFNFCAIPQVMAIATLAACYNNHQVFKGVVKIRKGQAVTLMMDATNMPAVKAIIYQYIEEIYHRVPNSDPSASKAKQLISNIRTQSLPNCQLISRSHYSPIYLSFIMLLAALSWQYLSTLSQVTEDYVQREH

[1] = molecular target: T2, Protein farnesyltransferase (Bos taurus, UniProt P29702+P49355); assay: Inhibition of farnesyl protein transferase from bovine brain
[2] = molecular target: T2, Protein farnesyltransferase; assay: Inhibition of Farnesyltransferase from bovine brain

IC50 (Squalene synthase) | IC50 [1] | IC50 [2] | SMILES
4200 nM | 10000 nM | – | CC(C)=CCC/C(C)=C/CC/C(C)=C/CC(CCP(=O)(O)O)C(=O)N[C@@H](Cc1ccccc1)C(=O)O (some centres undefined)
1400 nM | > 100000 nM | – | COC(=O)[C@H](Cc1ccccc1)NC(=O)C(C/C=C(\C)CC/C=C(\C)CCC=C(C)C)P(=O)(O)O (some centres undefined)
2400 nM | 37000 nM | – | CC(C)=CCC/C(C)=C/CC/C(C)=C/CC(C(=O)O)C(=O)NC(Cc1ccccc1)C(=O)O (centres undefined)
220 nM | 470 nM | – | CC(C)=CCC/C(C)=C/CC/C(C)=C/CC(CC(=O)N[C@@H](Cc1ccccc1)C(=O)O)P(=O)(O)O (some centres undefined)
90 nM | 170 nM | – | CC(C)=CCC/C(C)=C/CC/C(C)=C/CC(CP(=O)(O)O)C(=O)N[C@@H](Cc1ccccc1)C(=O)O (some centres undefined)

The next lines start with the molecule.

SMILES | IC50 (Squalene synthase) | IC50 [1] | IC50 [2]
CC(C)=CCC/C(C)=C/CC/C(C)=C/CC(C(=O)NCCc1ccccc1)P(=O)(O)O (centres undefined) | 480 nM | 13000 nM | –
CC(C)=CCC/C(C)=C/CC/C(C)=C/C(O)P(=O)(O)O (centres undefined) | 2300 nM | 410 nM | –
CC(C)=CCC/C(C)=C/CCCC(P(=O)(O)O)P(=O)(O)O [SQ-34919] | – | – | 80000 nM
CC(C)=CCC/C(C)=C/CC/C(C)=C/CC(C(=O)N[C@@H](Cc1ccccc1)C(=O)O)P(=O)(O)O (some centres undefined) | 1300 nM | 80 nM | –
CC(C)=CCC/C(C)=C/CC/C(C)=C/CC(C(=O)N[C@H](Cc1ccccc1)C(=O)O)P(=O)(O)O (some centres undefined) | 500 nM | 980 nM | –
